Experimental data reported in PMC12562379, “Facile Synthesis of N-vinylindoles via Knoevenagel Condensation: Molecular Features and Biological Activities” (International Journal of Molecular Sciences, 2025).
≈ marks a conversion by molar mass, not a printed value. Structures can show the parent of a compound that is named as a salt. Where two headings read alike, the source gives them in different places.

How the values were obtained:
S. aureus ATCC 6535 = assay: Microbroth dilution assay; assay type: cell-based; settings: Staphylococcus aureus, ATCC6535
S. aureus MRSA 12673 = assay: Microbroth dilution assay; assay type: cell-based; settings: Staphylococcus aureus
E. coli ATCC 8739 = assay: Microbroth dilution assay; assay type: cell-based; settings: Escherichia coli, ATCC8739
Protocol: (§1) The minimum inhibitory concentration (MIC) and minimum bactericidal/fungicidal concentration (MBC/MFC) of the tested compounds were determined by the microbroth dilution technique using 96-well plates based on the methodology described in the EUCAST (European Committee on Antimicrobial Susceptibility Testing) standards. Reference and clinical strains of Gram-positive (Staphylococcus aureus ATCC 6538, Staphylococuccus aureus MRSA 6347) and Gram-negative (Escherichia coli ATCC 8739) bacteria, and yeast (Candida albicans ATCC 10231, Candida glabrata ATCC 2001) were used for the assay. The studies were carried out in the Mueller–Hinton (MH) broth for bacteria and RPMI 1640 broth + MOPS (Sigma-Aldrich, Poland) buffer in the case of yeast. The dry test samples were dissolved in DMSO (dimethyl sulfoxide), resulting in a final concentration of 15 mg/mL, and then diluted in a geometric progression. Ampicillin (Sigma-Aldrich, Poland) acted as a control sample (512 to 4 µg/mL) for bacteria and ketoconazole (128 to 1 µg/mL) (Sigma-Aldrich, Poland) acted as a control sample for yeast. The cultures of microorganisms were prepared by transferring cells from the stock cultures to tubes with the appropriate broth and incubated with agitation in an aerobic atmosphere for 18 ± 2 h at 35 ± 1 °C; next, they were diluted to achieve an optical density corresponding to 5 × 105 (bacteria) or 2 × 105 (yeast) colony-forming units per mL (cfu/mL). An appropriate media (96 µL), along with the tested compounds with a final concentration range of 300–3.1 µg/mL (4 µL) and next microbial suspension (100 µL) were added to each well. Plates with samples were incubated in adequate conditions described above and microbial growth was assessed. […] (>90%; ketoconazole) but 50% (for other compounds) inhibits visible growth of yeasts. Next, as a control of microbial viability, 100 µL of the samples from each well without growth was inoculated on the MH or RPMI agar plates and incubated for 18 ± 2 h at 35 ± 1 °C and finally, the CFU was counted. The MBC/MFC was determined as the minimum concentration of compounds required to kill 99.9% the organisms.

C. albicans ATCC 10231 = assay: Microbroth dilution assay; assay type: cell-based, Candida albicans; settings: Candida albicans, ATCC10231, C. albicans ATCC 10231; for MFC: read-out: MFC; for MIC: read-out: MIC
Protocol: as §1

C. glabrata ATCC 2001 = assay: Microbroth dilution assay; assay type: cell-based, Candida glabrata; settings: Nakaseomyces glabratus, ATCC2001
Protocol: as §1

AGS = assay: MTT assay, cytotoxic activity; assay type: cell-based, human; settings: 24 h, n = 12; for IC50: Homo sapiens
Protocol: (§2) The human ovarian SKOV-3, gastric adenocarcinoma AGS, cervical HeLa cell lines and non-cancerous keratinocytes HaCaT were obtained from the American Type Culture Collection (ATCC, Manassas, VA, USA). The cell lines were cultured in McCoy’s Medium, Dulbecco’s Modified Eagle’s Medium/F12, and DMEM, respectively (Merck Millipore, Burlington, MA, USA). Penicillin (100 units/mL), streptomycin ([…]), and 10% (v/v) fetal bovine serum (FBS) were added to all the media. The cells were incubated at 37 °C and 5% CO2.
(§3) To estimate the cytotoxic activity of the obtained compounds 2a-i, MTT assay was used. The cells (5 × 10^3 cells/well) were treated with the compounds in a range of concentrations 1–150 µg/mL. […] After 24 h, MTT solution (0.5 mg/mL) was added to the cells. Formazan crystals were dissolved in DMSO and the absorbance was measured with a microtiter plate reader (Epoch, BioTek Instruments, Winooski, VT, USA).

HeLa = assay: MTT assay, cytotoxic activity; assay type: cell-based, human; settings: 24 h, n = 12; for IC50: Homo sapiens
Protocol: as §2, §3

SKOV-3 = assay: MTT assay, cytotoxic activity; assay type: cell-based, human; settings: SKOV-3, MTT, 24 h, n = 12; for IC50: Homo sapiens, SK-OV-3
Protocol: as §2, §3

HaCaT = assay: MTT assay, cytotoxic activity on non-cancerous keratinocytes; assay type: cell-based; settings: Homo sapiens, 24 h, n = 12
Protocol: as §2, §3

[1] = biological target: T1, AGE2-BSA/sRAGE interaction (Homo sapiens, UniProt Q15109); assay: ELISA AGE2-BSA/sRAGE inhibitory screening; assay type: binding
T1 construct: purchased Creative BioMart
Protocol: The in vitro inhibitor screening of AGE2 (glyceraldehyde-modified AGE)-sRAGE interaction (soluble RAGE) was performed using a 96-well AGE-BSA-coated plate (Creative BioMart® ELISA kit, Shirley, NY, USA), according to the manufacturer’s instructions. 100 UA/mL soluble RAGE (sRAGE) was incubated with 100 μM of the tested compounds or 0.05% DMSO as a negative control on an AGE2-BSA-coated plate at room temperature for 60 min, shaking at 300 rpm on an orbital microplate shaker. After incubation, the wells were washed 4 times with wash buffer and horseradish peroxidase (HRP)-labeled anti-RAGE antibody was added and the plate was further incubated at room temperature for 60 min, shaking at 300 rpm on an orbital microplate shaker. After incubation, the wells were washed 4 times with wash buffer and the Substrate Reagent was added to each well. After an incubation at room temperature for 5 min, the HRP-labeled antibody sRAGE-AGE complex was then detected by measuring the absorbance at 450 nm using the microplate reader Varioskan (Thermo Fischer Scientific). These experiments were repeated two times.

[2] = system: HeLa, SKOV-3, AGS (and HaCaT) cell lines; assay: MTT assay, ranges stated over several cell lines; assay type: cell-based, human; settings: for IC50: Homo sapiens
Protocol: as §2, §3

[3] = S. aureus MRSA 12673, read-out: MIC
[4] = E. coli ATCC 8739, read-out: MIC
[5] = range over the cancer cell lines HeLa, SKOV-3 and AGS
[6] = range over HeLa and SKOV-3 cell lines

T1 sequence (Q15109 23-342 limits assumed): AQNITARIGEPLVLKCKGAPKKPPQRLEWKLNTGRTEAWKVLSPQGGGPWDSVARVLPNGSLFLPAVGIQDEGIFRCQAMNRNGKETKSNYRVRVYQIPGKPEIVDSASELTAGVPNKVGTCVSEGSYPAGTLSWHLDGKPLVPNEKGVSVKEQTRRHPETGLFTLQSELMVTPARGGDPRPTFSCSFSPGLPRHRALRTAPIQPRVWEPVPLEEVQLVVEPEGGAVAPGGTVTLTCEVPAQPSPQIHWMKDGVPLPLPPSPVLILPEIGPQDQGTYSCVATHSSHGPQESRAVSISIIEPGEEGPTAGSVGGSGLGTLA

| Compound | MIC (S. aureus ATCC 6535) [µg/mL] | MIC (C. albicans ATCC 10231) [µg/mL] | MIC (C. glabrata ATCC 2001) [µg/mL] | MIC (S. aureus MRSA 12673; [3]) [µg/mL] | MIC (E. coli ATCC 8739; [4]) [µg/mL] | MBC (S. aureus ATCC 6535) [µg/mL] | MBC (S. aureus MRSA 12673; S. aureus MRSA 12673) [µg/mL] | MBC (E. coli ATCC 8739; E. coli ATCC 8739) [µg/mL] | MFC (C. albicans ATCC 10231) [µg/mL] | MFC (C. glabrata ATCC 2001) [µg/mL] | IC50 (AGS) [µg/mL] | IC50 (HeLa) [µg/mL] | IC50 (SKOV-3) [µg/mL] | IC50 (HaCaT) [µg/mL] | other results |
| --- | --- | --- | --- | --- | --- | --- | --- | --- | --- | --- | --- | --- | --- | --- | --- |
| CC1(C)S[C@@H]2[C@H](NC(=O)[C@H](N)c3ccccc3)C(=O)N2[C@H]1C(=O)O [Ampicillin, reference compound] | 8 (≈ 22.9 µM) |  |  |  |  | 8 (≈ 22.9 µM) | 512 (≈ 1470 µM) | 128 (≈ 366 µM) |  |  |  |  |  |  | MIC (S. aureus MRSA 12673; MRSA): 512 µg/mL (≈ 1470 µM); MIC (E. coli ATCC 8739): 128 µg/mL (≈ 366 µM) |
| CC(=O)N1CCN(c2ccc(OCC3COC(Cn4ccnc4)(c4ccc(Cl)cc4Cl)O3)cc2)CC1 (centres unmarked) [Ketoconazole, reference compound] |  | > 128 | 64 (≈ 120 µM) |  |  |  |  |  | > 128 | 128 (≈ 241 µM) |  |  |  |  |  |
| O=C1[O][Pt]2([NH][C@@H]3CCCC[C@H]3[NH]2)[O]C1=O [Oxaliplatin, reference compound] |  |  |  |  |  |  |  |  |  |  |  |  |  |  | IC50 ± SD (AGS): 17.90 ± 1.20 µg/mL; IC50 ± SD (HeLa): 35.76 ± 1.72 µg/mL; IC50 ± SD (SKOV-3): 102.16 ± 9.26 µg/mL; IC50 (range over cell lines) [2, 6]: 35.76 to 102.16 µg/mL |
| CC[C@]1(O)C[C@@H]2CN(CCc3c([nH]c4ccccc34)[C@@](C(=O)OC)(c3cc4c(cc3OC)N(C)[C@H]3[C@@](O)(C(=O)OC)[C@H](OC(C)=O)[C@]5(CC)C=CCN6CC[C@]43[C@@H]65)C2)C1 [Vinblastine sulfate, reference compound] |  |  |  |  |  |  |  |  |  |  |  | 0.005 ± 0.0004 | 0.008 ± 0.0003 |  |  |

Continued, in another order:

| MIC (S. aureus ATCC 6535) [µg/mL] | MIC (C. albicans ATCC 10231) [µg/mL] | MIC (C. glabrata ATCC 2001) [µg/mL] | MIC (S. aureus MRSA 12673; [3]) [µg/mL] | MIC (E. coli ATCC 8739; [4]) [µg/mL] | Compound | MBC (S. aureus ATCC 6535) [µg/mL] | MBC (S. aureus MRSA 12673; S. aureus MRSA 12673) [µg/mL] | MBC (E. coli ATCC 8739; E. coli ATCC 8739) [µg/mL] | MFC (C. albicans ATCC 10231) [µg/mL] | MFC (C. glabrata ATCC 2001) [µg/mL] | IC50 (AGS) [µg/mL] | IC50 (HeLa) [µg/mL] | IC50 (SKOV-3) [µg/mL] | IC50 (HaCaT) [µg/mL] | other results |
| --- | --- | --- | --- | --- | --- | --- | --- | --- | --- | --- | --- | --- | --- | --- | --- |
| 110 (≈ 383 µM) | > 220 | > 220 | 220 (≈ 766 µM) | 220 (≈ 766 µM) | C(=C(\C1=NCCN1)n1ccc2ccccc21)/c1ccccc1 [Compound 2a, (Z)-1-[1-(4,5-dihydro-1H-imidazol-2-yl)-2-(phenyl)vinyl]-1H-indole] | 220 (≈ 766 µM) | > 220 | 220 (≈ 766 µM) | > 220 | > 220 | 17.2 ± 0.68 (≈ 60 µM) | 8.96 ± 0.33 (≈ 31.2 µM) | 9.81 ± 0.45 (≈ 34.1 µM) | 11.7 ± 1.31 (≈ 40.7 µM) |  |
| 55 (≈ 182 µM) | 220 (≈ 730 µM) | 220 (≈ 730 µM) | 220 (≈ 730 µM) | 220 (≈ 730 µM) | Cc1ccc(/C=C(/C2=NCCN2)n2ccc3ccccc32)cc1 [Compound 2b, (Z)-1-[1-(4,5-dihydro-1H-imidazol-2-yl)-2-(p-tolyl)vinyl]-1H-indole] | 110 (≈ 365 µM) | > 220 | > 220 | > 220 | > 220 | 16.2 ± 1.2 (≈ 53.8 µM) | 8.19 ± 0.4 (≈ 27.2 µM) | 9.69 ± 0.62 (≈ 32.2 µM) | 12.1 ± 0.55 (≈ 40.1 µM) | Inhibition (%) of AGE2-BSA/sRAGE interaction ([1]; 100 µM): devoid of activity and lack; IC50 [2, 5]: 8.19 to 16.2 µg/mL (≈ 27.2 to 53.8 µM) |
| 110 (≈ 347 µM) | > 220 | > 220 | > 220 | 220 (≈ 693 µM) | COc1ccc(/C=C(/C2=NCCN2)n2ccc3ccccc32)cc1 [Compound 2c, (Z)-1-[1-(4,5-dihydro-1H-imidazol-2-yl)-2-(4-methoxyphenyl)vinyl]-1H-indole] | 110 (≈ 347 µM) | > 220 | > 220 | > 220 | > 220 | 10.29 ± 0.08 (≈ 32.4 µM) | 7.86 ± 0.59 (≈ 24.8 µM) | 8.8 ± 0.46 (≈ 27.7 µM) | 9.11 ± 1.58 (≈ 28.7 µM) |  |
| 120 (≈ 393 µM) | > 240 | > 240 | 120 (≈ 393 µM) | 240 (≈ 786 µM) | Fc1ccc(/C=C(/C2=NCCN2)n2ccc3ccccc32)cc1 [Compound 2d, (Z)-1-[1-(4,5-dihydro-1H-imidazol-2-yl)-2-(4-fluorophenyl)vinyl]-1H-indole] | 240 (≈ 786 µM) | > 240 | > 240 | > 240 | > 240 | 15.5 ± 0.72 (≈ 50.7 µM) | 8.65 ± 0.68 (≈ 28.3 µM) | 10.2 ± 0.45 (≈ 33.6 µM) | 7.37 ± 0.28 (≈ 24.1 µM) | inhibition at 100 µM [1]: 12%; IC50 [2, 5]: 8.65 to 15.5 µg/mL (≈ 28.3 to 50.7 µM) |
| 30 (≈ 93.2 µM) | 120 (≈ 373 µM) | 240 (≈ 746 µM) | 60 (≈ 186 µM) | 120 (≈ 373 µM) | Clc1ccc(/C=C(/C2=NCCN2)n2ccc3ccccc32)cc1 [Compound 2e, (Z)-1-[2-(4-chlorophenyl)-1-(4,5-dihydro-1H-imidazol-2-yl)vinyl]-1H-indole] | 60 (≈ 186 µM) | 240 (≈ 746 µM) | 240 (≈ 746 µM) | 240 (≈ 746 µM) | 240 (≈ 746 µM) | 11.4 ± 0.74 (≈ 35.3 µM) | 3.13 ± 0.3 (≈ 9.73 µM) | 4.4 ± 0.16 (≈ 13.7 µM) | 3.43 ± 0.05 (≈ 10.7 µM) | inhibition at 100 µM [1]: 34.7%; IC50 [2, 6]: 3.13 to 4.4 µg/mL (≈ 9.73 to 13.7 µM) |
| 55 (≈ 165 µM) | > 220 | > 220 | 110 (≈ 331 µM) | 220 (≈ 662 µM) | O=[N+]([O-])c1ccc(/C=C(/C2=NCCN2)n2ccc3ccccc32)cc1 [Compound 2g, (Z)-1-[1-(4,5-dihydro-1H-imidazol-2-yl)-2-(4-nitrophenyl)vinyl]-1H-indole] | 110 (≈ 331 µM) | > 220 | > 220 | > 220 | > 220 | 10.14 ± 0.08 (≈ 30.5 µM) | 5.6 ± 0.57 (≈ 16.8 µM) | 7.06 ± 0.62 (≈ 21.2 µM) | 9.15 ± 0.74 (≈ 27.5 µM) | IC50 [2, 6]: 5.6 to 7.06 µg/mL (≈ 16.8 to 21.2 µM) |
